Molecules are shown by their SMILES.

Experiment [1] has as its system Human SCCA1. Kind of experiment: SCCA-1 expression-inhibiting effect in cultured human keratinocytes (quantitative PCR, G3PDH internal standard). As to conditions: 24 hours after addition at different concentrations, vs no-drug negative control, FIG. 1-3. The experiment is classed as cell-based. The protocol: SCCA-1 expression-inhibiting effects of carboxyamide derivatives in cell line:
Human keratinocytes were cultured, and carboxyamide derivatives at different concentrations were added at 60-70% confluency. The carboxyamide derivatives used were the following:
After 24 hours, the RNA was obtained, and then it was subjected to a quantitative PCR analysis by ABI PRISM 7900HT Sequence Detector System (Taqman PE) (Applied Biosystems) with using a primer/probe combination shown below, thereby the amount of SCCA gene expression was measured (using G3PDH as the internal standard). • Human SCCA1 • Forward primer: 5′-GTGCTATCTGGAGTCCT-3′ (SEQ ID NO: 1) • Reverse primer: 5′-CTGTTGTTGCCAGCAA-3′ (SEQ ID NO: 2) • Probe: 5′-CATCACCTACTTCAACT-3′ (SEQ ID NO: 3) • Human G3PDH • Forward primer: 5′-GAAGGTGAAGGTCGGAGTC-3′ (SEQ ID NO: 4) • Reverse primer: 5′-[…]-3′ (SEQ ID NO: 5) • Probe: 5′-[…]-3′ (SEQ ID NO: 6)

Experiment [2] relates to SCAA-2. As to conditions: known from Japanese Patent Application No. 2008-903571; cited from earlier work.
Experiment [3] has as its system SCAA-1. Conditions: known from Japanese Patent Application No. 2008-903571; cited from earlier work.

As for `O=C1NCCN1CCO` [1-(2-hydroxyethyl)-2-imidazolidinone], the SCCA-1 gene expression entry in experiment [1] is “significant dose-dependent reduction in SCCA-1 gene expression”. Still for that read-out and setting: as for `O=C1CCCN1CCO` [1-(2-hydroxyethyl)-2-pyrrolidone], the entry is “significant dose-dependent reduction in SCCA-1 gene expression”. Consider `O=C(O)CCN1CCCCC1` [1-piperidinepropionic acid (1-PP), 1-piperidinepropionic acid], for which, in experiment [2], the “gene expression-inhibiting effect on SCAA-2” value is “gene expression-inhibiting effect”. The “gene expression-inhibiting effect on SCAA-1” value in experiment [3] is reported as “gene expression-inhibiting effect”.

`NC(=O)NC1NC(=O)NC1=O` (stereo not shown) [allantoin]: the SCCA-1 gene expression result in experiment [1] is reported as “significant dose-dependent reduction in SCCA-1 gene expression”. Same read-out and setting: as for `O=C1NCCN1` [ethyleneurea], the entry is “significant dose-dependent reduction in SCCA-1 gene expression”; as for `NC(N)=O` [urea], “significant dose-dependent reduction in SCCA-1 gene expression”.

Source of the values: US20120283302A1, “SCCA-1 PRODUCTION INHIBITOR HAVING A CARBOXAMIDE DERIVATIVE AND/OR A SALT THEREOF AS AN ACTIVE INGREDIENT” (SHISEIDO COMPANY, LTD, priority 2009, published 2012).
